Experimental data published in PubChem BioAssay (NCI).
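GI50 marks 50% less growth. TGI denotes the concentration required for complete inhibition of growth.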

Legend:
Test in all cases: growth of human tumour cells (NCI), 384-well format
NCI/ADR-RES ovarian = system: NCI/ADR-RES ovarian
SF-268 CNS = system: SF-268 CNS
TK-10 renal = system: TK-10 renal
SK-OV-3 ovarian = system: SK-OV-3 ovarian
SK-MEL-28 melanoma = system: SK-MEL-28 melanoma
CAKI-1 renal = system: CAKI-1 renal
MALME-3M melanoma = system: MALME-3M melanoma
SK-MEL-5 melanoma = system: SK-MEL-5 melanoma
SR leukemia = system: SR leukemia
RPMI-8226 leukemia = system: RPMI-8226 leukemia
ACHN renal = system: ACHN renal
NCI-H322M lung = system: NCI-H322M lung
DU-145 prostate = system: DU-145 prostate
U251 glioblastoma = system: U251 glioblastoma
COLO 205 colon = system: COLO 205 colon
MDA-MB-231 breast = system: MDA-MB-231 breast
NCI-H522 lung = system: NCI-H522 lung
M14 melanoma = system: M14 melanoma
NCI-H460 NSCLC = system: NCI-H460 NSCLC
OVCAR-3 ovarian = system: OVCAR-3 ovarian
HCC-2998 colon = system: HCC-2998 colon
HCT-116 colon = system: HCT-116 colon
MDA-MB-468 breast = system: MDA-MB-468 breast
MCF7 breast = system: MCF7 breast
HL-60(TB) leukemia = system: HL-60(TB) leukemia
A549 NSCLC = system: A549 NSCLC
NCI-H23 lung = system: NCI-H23 lung
MOLT-4 leukemia = system: MOLT-4 leukemia
HOP-62 NSCLC = system: HOP-62 NSCLC
HT29 colon = system: HT29 colon
IGROV1 ovarian = system: IGROV1 ovarian
EKVX NSCLC = system: EKVX NSCLC
UACC-257 melanoma = system: UACC-257 melanoma
SNB-19 CNS = system: SNB-19 CNS
RXF 393 renal = system: RXF 393 renal
HCT-15 colon = system: HCT-15 colon
SNB-75 CNS = system: SNB-75 CNS
SN12C renal = system: SN12C renal
OVCAR-5 ovarian = system: OVCAR-5 ovarian
UACC-62 melanoma = system: UACC-62 melanoma
NCI-H226 lung = system: NCI-H226 lung
A498 renal = system: A498 renal
OVCAR-4 ovarian = system: OVCAR-4 ovarian
LOX IMVI melanoma = system: LOX IMVI melanoma
T-47D breast = system: T-47D breast
HOP-92 NSCLC = system: HOP-92 NSCLC
SF-539 CNS = system: SF-539 CNS
BT-549 breast = system: BT-549 breast
PC-3 prostate = system: PC-3 prostate
OVCAR-8 ovarian = system: OVCAR-8 ovarian
MDA-MB-435 melanoma = system: MDA-MB-435 melanoma
SF-295 CNS = system: SF-295 CNS
KM12 colon = system: KM12 colon
HS 578T breast = system: HS 578T breast

`COc1ccc2c(OCc3nnc4ccc(-c5ccccc5)nn34)ccnc2c1` was tested, and the GI50 (NCI/ADR-RES ovarian) was > 100 µM, the TGI (NCI/ADR-RES ovarian) was > 100 µM and the GI50 (SF-268 CNS) was > 100 µM. For the same compound, the TGI (SF-268 CNS) was > 100 µM, the GI50 (TK-10 renal) was 48.7 µM and the TGI (TK-10 renal) was > 100 µM. The GI50 (SK-OV-3 ovarian) was > 100 µM, the TGI (SK-OV-3 ovarian) was > 100 µM and the GI50 (SK-MEL-28 melanoma) was > 100 µM. For the same compound, the TGI (SK-MEL-28 melanoma) was > 100 µM, the GI50 (CAKI-1 renal) was > 100 µM and the TGI (CAKI-1 renal) was > 100 µM. For the same compound, the GI50 (MALME-3M melanoma) was > 100 µM, the TGI (MALME-3M melanoma) was > 100 µM and the GI50 (SK-MEL-5 melanoma) was > 100 µM. The TGI (SK-MEL-5 melanoma) was > 100 µM, the GI50 (SR leukemia) was > 100 µM and the TGI (SR leukemia) was > 100 µM. The GI50 (RPMI-8226 leukemia) was > 100 µM, the TGI (RPMI-8226 leukemia) was > 100 µM and the GI50 (ACHN renal) was 42.2 µM. For the same compound, the TGI (ACHN renal) was > 100 µM, the GI50 (NCI-H322M lung) was > 100 µM and the TGI (NCI-H322M lung) was > 100 µM. For the same compound, the GI50 (DU-145 prostate) was > 100 µM, the TGI (DU-145 prostate) was > 100 µM and the GI50 (U251 glioblastoma) was > 100 µM. For the same compound, the TGI (U251 glioblastoma) was > 100 µM, the GI50 (COLO 205 colon) was > 100 µM and the TGI (COLO 205 colon) was > 100 µM. The GI50 (MDA-MB-231 breast) was > 100 µM, the TGI (MDA-MB-231 breast) was > 100 µM and the GI50 (NCI-H522 lung) was 44.6 µM. For the same compound, the TGI (NCI-H522 lung) was > 100 µM, the GI50 (M14 melanoma) was > 100 µM and the TGI (M14 melanoma) was > 100 µM. The GI50 (NCI-H460 NSCLC) was 73.8 µM, the TGI (NCI-H460 NSCLC) was > 100 µM and the GI50 (OVCAR-3 ovarian) was 29.8 µM. For the same compound, the TGI (OVCAR-3 ovarian) was 94.6 µM, the GI50 (HCC-2998 colon) was > 100 µM and the TGI (HCC-2998 colon) was > 100 µM. For the same compound, the GI50 (HCT-116 colon) was > 100 µM, the TGI (HCT-116 colon) was > 100 µM and the GI50 (MDA-MB-468 breast) was > 100 µM. For the same compound, the TGI (MDA-MB-468 breast) was > 100 µM, the GI50 (MCF7 breast) was > 100 µM and the TGI (MCF7 breast) was > 100 µM. For the same compound, the GI50 (HL-60(TB) leukemia) was > 100 µM, the TGI (HL-60(TB) leukemia) was > 100 µM and the GI50 (A549 NSCLC) was > 100 µM. The TGI (A549 NSCLC) was > 100 µM, the GI50 (NCI-H23 lung) was > 100 µM and the TGI (NCI-H23 lung) was > 100 µM. The GI50 (MOLT-4 leukemia) was > 100 µM, the TGI (MOLT-4 leukemia) was > 100 µM and the GI50 (HOP-62 NSCLC) was 60.5 µM. The TGI (HOP-62 NSCLC) was > 100 µM, the GI50 (HT29 colon) was > 100 µM and the TGI (HT29 colon) was > 100 µM. For the same compound, the GI50 (IGROV1 ovarian) was > 100 µM, the TGI (IGROV1 ovarian) was > 100 µM and the GI50 (EKVX NSCLC) was > 100 µM. The TGI (EKVX NSCLC) was > 100 µM, the GI50 (UACC-257 melanoma) was > 100 µM and the TGI (UACC-257 melanoma) was > 100 µM. The GI50 (SNB-19 CNS) was 50.1 µM, the TGI (SNB-19 CNS) was > 100 µM and the GI50 (RXF 393 renal) was > 100 µM. The TGI (RXF 393 renal) was > 100 µM, the GI50 (HCT-15 colon) was > 100 µM and the TGI (HCT-15 colon) was > 100 µM. For the same compound, the GI50 (SNB-75 CNS) was > 100 µM, the TGI (SNB-75 CNS) was > 100 µM and the GI50 (SN12C renal) was 63 µM. For the same compound, the TGI (SN12C renal) was > 100 µM, the GI50 (OVCAR-5 ovarian) was > 100 µM and the TGI (OVCAR-5 ovarian) was > 100 µM. For the same compound, the GI50 (UACC-62 melanoma) was > 100 µM, the TGI (UACC-62 melanoma) was > 100 µM and the GI50 (NCI-H226 lung) was > 100 µM. The TGI (NCI-H226 lung) was > 100 µM, the GI50 (A498 renal) was > 100 µM and the TGI (A498 renal) was > 100 µM. The GI50 (OVCAR-4 ovarian) was 28.9 µM, the TGI (OVCAR-4 ovarian) was > 100 µM and the GI50 (LOX IMVI melanoma) was > 100 µM. For the same compound, the TGI (LOX IMVI melanoma) was > 100 µM, the GI50 (T-47D breast) was > 100 µM and the TGI (T-47D breast) was > 100 µM. The GI50 (HOP-92 NSCLC) was > 100 µM, the TGI (HOP-92 NSCLC) was > 100 µM and the GI50 (SF-539 CNS) was > 100 µM. For the same compound, the TGI (SF-539 CNS) was > 100 µM, the GI50 (BT-549 breast) was > 100 µM and the TGI (BT-549 breast) was > 100 µM. For the same compound, the GI50 (PC-3 prostate) was > 100 µM, the TGI (PC-3 prostate) was > 100 µM and the GI50 (OVCAR-8 ovarian) was > 100 µM. The TGI (OVCAR-8 ovarian) was > 100 µM, the GI50 (MDA-MB-435 melanoma) was > 100 µM and the TGI (MDA-MB-435 melanoma) was > 100 µM. For the same compound, the GI50 (SF-295 CNS) was > 100 µM, the TGI (SF-295 CNS) was > 100 µM and the GI50 (KM12 colon) was > 100 µM. The TGI (KM12 colon) was > 100 µM, the GI50 (HS 578T breast) was > 100 µM and the TGI (HS 578T breast) was > 100 µM.
